# Assay results reported in article PMC7766155, “Improved Stability and Activity of a Marine Peptide-N6NH2 against Edwardsiella tarda and Its Preliminary Application in Fish” (Marine Drugs, 2020).
# Where two headings read alike, the source gives them in different places. Where a SMILES comes first, the peptide text is derived from it. Bridges are numbered along the chain shown (N, C = ends).
# Legend:
# [1] = test system: S. typhimurium ATCC14028
# [2] = test system: E. tarda; test: Thermal stability (residual antibacterial activity, inhibition zone); assay type: physicochemical, Edwardsiella tarda; conditions: incubated 1 h at 100 °C; N6 128 μg/mL; inhibition zone method vs untreated peptide; triplicate
# Protocol: To evaluate the thermal stability of peptides, N6 and N6NH2 were incubated for 1 h at 4, 20, 40, 60, 80 and 100 °C. To measure the pH stability, peptides were incubated for 3 h in 100 mM glycine-HCl buffer (pH 2.0), sodium acetate buffer (pH 4.0), sodium phosphate buffer (pH 6.0), Tris-HCl buffer (pH 8.0) or glycine-NaOH buffer (pH 10.0). In addition, peptides were incubated for 4 h at 37 °C in pepsin (3,000 U/mg, pH 2.0) and trypsin (250 U/mg, pH 8.0) (10:1, w/w) solutions, respectively. […] After treatment, 30 μL of solutions were taken out to determine the antibacterial activity of peptides against E. tarda by the inhibition zone method. The untreated peptides were used as the control. All tests were conducted in triplicate.
# [3] = test system: E. tarda genomic DNA; test: Competitive binding of genomic DNA with ethidium bromide; parameters: species or system Edwardsiella tarda; conditions: peptide 160 μg/mL added to DNA (10 μg)-EB; 30 min at 37 °C
# Protocol: E. tarda genomic DNA was dissolved in TE buffer to a concentration of 100 μg/mL; 1.5 μL of EB (100 μg/mL) solution was mixed with 100 μL of DNA solution and then added into 96-well plates. The DNA-EB mixture was incubated in the dark at 37 °C for 10 min. Varying concentrations of peptides (0, 40, 80, and 160 μg/mL, 100 μL) were then added to the DNA-EB solution (100 μL), and the fluorescence spectra were measured for each test solution after 30 min of incubation at 37 °C in the dark. Infinite M200 PRO was used for sample determination at 535 nm, and the spectra were recorded from 550 to 750 nm.
# To determine the competitive binding of EB against peptides with bacterial DNA, 100 μL of DNA (50 μg/mL) solution was mixed with 100 μL of peptide solution (80 μg/mL) and incubated at 37 °C for 10 min. Then aliquots of stock solution of EB (0, 25, 50, and 100 μg/mL, 1.5 μL) were added to the fixed DNA-peptide solution and incubated for 30 min at 37 °C in the dark. The fluorescence spectra were measured as described above.
# [4] = test system: Pseudomonas aeruginosa CICC21630
# [5] = test system: E. coli CVCC1515
# [6] = test system: E. tarda genomic DNA; test: Gel migration (DNA binding) assay; parameters: species or system Edwardsiella tarda; conditions: 0.25 μg DNA, 10 min at room temperature, 0.7% agarose gel; mass ratios 0–10 tested
# Protocol: (§1) The genomic DNA of E. tarda or O. niloticus was incubated for 10 min at room temperature with different concentrations of N6 and N6NH2 in binding buffer (5% glycerol, 10 mM Tris-HCl, pH 8.0, 20 mM KCl, 1 mM EDTA, 1 mM dithiothreitol and […] BSA). The mass ratios of peptides and DNA were 0, 0.5, 1, 2, 4, 6, 8, and 10, respectively. The migration of DNA was evaluated by electrophoresis on a 0.7% agarose gel.
# [7] = test system: fish genome DNA; test: Gel migration (DNA binding) assay; conditions: O. niloticus genomic DNA, Supplementary Figure S2
# Protocol: as §1
# [8] = broth microdilution, MHB, 1 × 10^5 CFU/mL, 37 °C 18–24 h, n = 3, some N6 data from ref 19
smiles,measurement,setting,value
CC(C)[C@@H]1NC(=O)CNC(=O)[C@H](CC(N)=O)NC(=O)[C@H](CCCNC(=N)N)NC(=O)[C@H](Cc2ccc(O)cc2)NC(=O)[C@H](C(C)C)NC(=O)[C@@H](NC(=O)[C@@H](NC(=O)[C@H](CC(N)=O)NC(=O)[C@H](Cc2c[nH]c3ccccc23)NC(=O)[C@H](C)NC(=O)[C@H](Cc2ccccc2)NC(=O)CN)C(C)C)CSSC[C@@H](C(=O)N[C@@H](Cc2c[nH]cn2)C(=O)N[C@@H](CCCNC(=N)N)C(=O)N[C@@H](CCCNC(=N)N)C(=O)N[C@@H](C)C(=O)N[C@@H](CC(N)=O)C(=O)O)NC(=O)[C@H](C(C)C)NC(=O)[C@H](CCCNC(=N)N)NC1=O [Peptide N6] (H-GFAWNVCVYRNGVRVCHRRAN-OH; disulfide 7-16; N-terminus assumed),MIC,[1]; ATCC14028,0.8 µM
same,MIC,[1]; [8],2 µg/mL
same,decrease of antimicrobial activity against E. tarda after heating,[2],6.7%
same,competition with EB for binding to E. tarda genomic DNA (quenching of DNA-EB fluorescence),[3],the binding affinity of N6 was stronger than that of N6NH2
same,MIC,[4]; CICC21630,1.6 µM
same,MIC,[4]; [8],4 µg/mL
same,MIC,[5]; CVCC1515,0.4 µM
same,MIC,[5]; [8],1 µg/mL
same,mass ratio of peptide and DNA at which migration of E. tarda genome DNA is inhibited,[6],greater than 1
same,mass ratio at which migration of fish genome DNA is prevented,[7],2
